“Also recorded” adds a separate entry of the source.
Legend:
CYP3A4 = target: T1, CYP3A4 (Homo sapiens, UniProt P08684); assay: Influence on CYP3A4 activity (P450-Glo); assay type: in vitro ADME
T1 construct: purchased Promega (Madison, WI, USA)
Experimental: (§1) Treatment of elderly patients who suffer from cancer or degenerative CNS diseases usually requires the use of more than one medication at the same time, which can result in a greater risk of DDIs. […] The results were compared to the selective CYP3A4 inhibitor ketoconazole and selective CYP2D6 inhibitor quinidine.
(§2) All assays and protocols used for the determination of compound ADME-Tox parameters were described previously. In brief, the metabolic stability assay was performed on HLMs, purchased from Sigma-Aldrich (St. Louis, MO, USA). ADS10310 was incubated with HLMs for 120 min in Tris buffer (pH = 7.4) at 37 °C. NADPH regeneration system Promega (Madison, WI, USA) was added to initiate whereas methanol was added to terminate the reaction. The LC/MS analyses of the centrifuged reaction mixture were obtained on Waters ACQUITY™ TQD system (Waters, Milford, CT, USA). The in silico prediction of most probable sites of ADS10310 metabolism was performed by MetaSite 6.0.1 software (Molecular Discovery Ltd., Hertfordshire, UK). […] The results were calculated from two independent experiments.
(§3) The luminescent signal and the absorbances (measured at 490 nm) in DDIs and safety assays were measured by using an EnSpire PerkinElmer microplate reader (Waltham, MA, USA). […]

gpH1R = target: T2, gpH1R (Cavia porcellus, UniProt P31389); assay: Ex vivo assay for histamine H1R antagonists on guinea pig ileum stimulated by histamine (+atropine); conditions: gpH1R +Atropine pA2 ± sem, isolated guinea pig ileum, vs histamine, 0.05 µM atropine
T2 construct: from tissue; host or cells: isolated distal ileum of male guinea pigs
T2 sequence (P31389 whole entry): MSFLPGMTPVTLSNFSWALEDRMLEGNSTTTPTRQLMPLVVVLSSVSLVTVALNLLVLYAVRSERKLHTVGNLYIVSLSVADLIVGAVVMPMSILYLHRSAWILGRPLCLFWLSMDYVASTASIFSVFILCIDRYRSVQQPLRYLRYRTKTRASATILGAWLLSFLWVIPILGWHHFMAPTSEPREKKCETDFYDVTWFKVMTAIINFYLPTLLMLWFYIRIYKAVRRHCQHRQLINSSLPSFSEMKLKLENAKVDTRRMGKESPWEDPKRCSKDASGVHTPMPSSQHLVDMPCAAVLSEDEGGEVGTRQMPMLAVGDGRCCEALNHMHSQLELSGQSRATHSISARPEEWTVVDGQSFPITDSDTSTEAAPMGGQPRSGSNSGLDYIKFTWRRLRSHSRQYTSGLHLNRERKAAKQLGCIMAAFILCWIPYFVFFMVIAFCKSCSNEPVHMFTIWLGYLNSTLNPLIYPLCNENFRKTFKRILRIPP
Experimental: A second histamine receptor located in the guinea pig ileum is H1R. The antagonistic effect at H1R was measured on the isolated guinea pig ileum stimulated to contractions by histamine. To eliminate the impact of muscarinic receptors located on the tested tissue, 0.05 µM of atropine was added to the Krebs buffer.
Ex vivo assay for histamine H3R and H1R antagonists were measured on the isolated guinea pig ileum stimulated to contractions by histamine. The pA2-values were calculated according to Arunlakshana and Schild. The radioligand-displacement binding assay was performed in membrane fractions of HEK-293 cells stably expressing hH3R. Cell cultivation and membrane preparation was performed according to Kottke et al.. The Ki values were calculated from the IC50 values using the Cheng–Prusoff equation [37]. The statistical calculations were performed on –log(Ki). […] The inhibitory activities of novel ADS compounds were assessed in spectrophotometric Ellman’s assay using AChE from electric eel (eeAChE) and BuChE from horse serum (eqBuChE).
3.2 Ex vivo assay for histamine H1R receptor antagonists on guinea pig ileum.
Male guinea pigs, weighing 300-400 g were euthanized by a blow to the neck. A 20-30 cm length of the distal ileum, apart from the terminal 5 cm was rapidly removed and placed in phosphate buffer at room temperature (pH […]
Aldrich, St. Louis, MO, USA) (1·10-6 mol/L). The intraluminal content was rinsed and the isolated intestine was cut into 1.5-2 cm segments. The preparations were mounted isotonically in a 20 mL organ bath filled with Krebs […]
a constant load of 0.5 g (Hugo Sachs Hebel-Messvorsatz (Tl-2)/HF-modem; Hugo Sachs Elektronik, Hugstetten, Germany) connected to a pen recorder (Kipp & Zonen BD41, Delft, Holland). During an equilibration period of 40 min, the Krebs buffer was changed every 10 min. The first cumulative concentration-response curve was determined to histamine (Sigma-Aldrich, St. Louis, MO, USA) (10 nM - 10 mM) at increasing concentration spaced by three or 3.3-fold. The second to the fourth (or fifth) curve was measured in the presence of an increasing concentration of antagonist (incubation time 10 min). The pA2-values were calculated according to Arunlakshana and Schild. [Br J Pharmacol Chemother. […] Statistical analysis was carried out with the Students’ t-test. In all tests, a p<0.05 was considered statistically significant. The pA2 values were compared with the affinity

CYP2D6 = target: T3, CYP2D6 (Homo sapiens, UniProt P10635); assay: Influence on CYP2D6 activity (P450-Glo); assay type: in vitro ADME
T3 construct: purchased Promega (Madison, WI, USA)
T3 sequence (P10635 whole entry): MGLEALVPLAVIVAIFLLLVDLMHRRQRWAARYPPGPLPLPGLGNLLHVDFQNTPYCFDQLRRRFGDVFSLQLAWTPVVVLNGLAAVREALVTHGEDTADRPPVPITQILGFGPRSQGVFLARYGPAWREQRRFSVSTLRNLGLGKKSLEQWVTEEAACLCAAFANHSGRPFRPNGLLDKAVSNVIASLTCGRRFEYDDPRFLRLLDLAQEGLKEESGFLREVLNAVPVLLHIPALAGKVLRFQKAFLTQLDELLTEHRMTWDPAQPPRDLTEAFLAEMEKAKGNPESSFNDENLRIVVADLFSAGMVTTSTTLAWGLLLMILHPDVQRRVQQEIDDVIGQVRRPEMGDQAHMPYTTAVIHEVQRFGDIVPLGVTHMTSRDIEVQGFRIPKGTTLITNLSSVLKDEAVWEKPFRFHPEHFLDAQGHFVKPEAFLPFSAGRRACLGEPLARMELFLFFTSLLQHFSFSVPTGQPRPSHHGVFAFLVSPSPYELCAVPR
Experimental: as §1, §2, §3

hepatoma HepG2 cell line = assay: Hepatotoxicity assay (MTS), HepG2; assay type: cell-based
Experimental: The cells were grown in Minimum Essential Media (MEM) supplemented with 10% fetal bovine serum (FBS) in a humidified atmosphere of 5% CO2 to reach 70–80% confluency. The cells were seeded next into 96-well plates at a concentration of 0.7 × 10^4 cells/well. […] The 1% DMSO in culture media was used as the vehicle control.

[1] = test system: MCF-7 breast cancer cells; assay: Apoptosis/necrosis detection (Annexin V-FITC/PI, image cytometry), MCF-7; assay type: cell-based, human; conditions: MCF-7, IC50 concentration, 48 h
Experimental: The MTT test results prompted further study. Staining with propidium iodide and Annexin V-FITC was performed to distinguish apoptotic from necrotic cell death.
Apoptosis was analyzed using the NucleoCounter® NC-3000™ (Chemometec Inc., Lillerød, Denmark) according to the manufacturer’s protocol using Annexin V from Biotium (Fremont, CA, USA). MCF-7 and MDA-MB-231 cells were seeded into 6-well plates (2 × 10^5 cells/mL) and cultured until 70–80% confluence was reached. […] Scatter plots were used to determine the proportion of healthy cells (Annexin V-negative/PI-negative cells), early apoptotic cells (Annexin V-positive/PI-negative cells), late apoptotic cells (Annexin V-positive/PI-positive cells), and necrotic cells (Annexin V-negative/PI-positive cells). Data were derived from three independent experiments with three replicates.

T1 sequence (P08684 whole entry): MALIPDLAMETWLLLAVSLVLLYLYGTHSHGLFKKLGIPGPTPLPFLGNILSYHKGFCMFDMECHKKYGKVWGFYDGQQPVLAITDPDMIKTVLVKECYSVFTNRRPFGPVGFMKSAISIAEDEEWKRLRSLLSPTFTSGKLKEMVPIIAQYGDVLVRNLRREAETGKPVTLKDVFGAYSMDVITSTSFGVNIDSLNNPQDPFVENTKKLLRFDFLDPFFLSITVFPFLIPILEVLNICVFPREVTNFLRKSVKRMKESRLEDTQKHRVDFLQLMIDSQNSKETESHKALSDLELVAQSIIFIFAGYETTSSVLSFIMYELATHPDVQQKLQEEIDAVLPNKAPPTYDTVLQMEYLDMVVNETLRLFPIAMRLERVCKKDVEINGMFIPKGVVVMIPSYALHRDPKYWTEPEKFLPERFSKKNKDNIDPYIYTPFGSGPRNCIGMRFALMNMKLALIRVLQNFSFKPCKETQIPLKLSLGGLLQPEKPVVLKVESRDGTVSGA

SMILES | influence on CYP3A4 activity (CYP3A4) | Kb (gpH1R) [nM] | CYP2D6 inhibition (in words) (CYP2D6) | decrease of CYP2D6 activity (CYP2D6; lowest tested dose of 0.1 µM) | decrease of hepatoma HepG2 cell viability (hepatoma HepG2 cell line; 100 µM, 72 h) | HepG2 cell viability at concentrations up to 50 µM (hepatoma HepG2 cell line; 72 h) | hepatotoxic activity (in words) (hepatoma HepG2 cell line; HepG2, 72 h, 0.01-100 µM) | early apoptotic cells (Q1lr) [1] [%] | late apoptotic cells (Q1ur) [1] [%]
Cl.Cl.N=C(NCCCCc1ccc(Cl)cc1)NCCCCN1CCCCC1 [ADS10310] | did not show any influence on CYP3A4 activity | 339 | strongly inhibited CYP2D6; also recorded: strong inhibitor of CYP2D6 activity | more than 50% | ~ 40% | no decrease | weak hepatotoxic activity | – | –
N=C(N)N(CCCCN1CCN(CCCCCCCOc2ccccc2)CC1)Cc1ccccc1 [ADS1017] | – | – | – | – | – | – | – | 2 | 38
